Laboratory results as given in publication PMC7831021, “Computational Evolution of Beta-2-Microglobulin Binding Peptides for Nanopatterned Surface Sensors” (International Journal of Molecular Sciences, 2021).
Where a SMILES comes first, the peptide text is derived from it. Bridges are numbered along the chain shown (N, C = ends).

Columns and labels:
[1] = target: T1, beta-2-Microglobulin (β2m) (Homo sapiens, UniProt P61769); experiment: Surface plasmon resonance (SPR) binding of peptides to immobilized β2m
T1 construct: purchased Sigma Aldrich (Germany)
T1 sequence (P61769 21-119): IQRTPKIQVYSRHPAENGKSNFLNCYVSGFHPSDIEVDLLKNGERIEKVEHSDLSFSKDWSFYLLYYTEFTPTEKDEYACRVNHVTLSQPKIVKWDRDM
Protocol: The interaction between the protein and computationally optimized peptides was measured using the BIAcore 3000 (GE Healthcare, Milano, Italy). β2m was immobilized at a concentration of 100 μg/mL in 10 mM acetate buffer pH 5 (flow rate 5 μL/min, time injection 7 min) on a CM5 Biacore sensor chip, using EDC/NHS chemistry following the manufacturer’s instructions. Residual reactive groups were deactivated by treatment with 1 M ethanolamine hydrochloride, pH 8.5. The reference channel was activated with EDC/NHS and deactivated with ethanolamine. The binding assays were carried out at 20 μL/min at 25 °C, with 4.5 min contact-time. Peptides were diluted in the HBS running buffer (10 mM Hepes, 150 mM NaCl, 3 mM EDTA, pH 7.4). Analyte injections were performed at the indicated concentrations. The sensor surface was regenerated by using 10mM NaOH for 1 min. The association phase (kon) was followed for 250 s, whereas the dissociation phase (koff) was followed for 300 s. The instrument BIAevaluation analysis package (version 4.1, GE Healthcare, Milano, Italy) was used to subtract the signal of the reference channel.

[2] = target: T1, beta-2-Microglobulin (β2m); experiment: AFM differential height β2m binding (recognition) assay on dsDNA–peptide nanopatches; settings: 5 and 1.25 mg/mL β2m
Protocol: After the nanografting process, the sample was thoroughly rinsed with 1M NaCl, TE1X buffer (DNA-free buffer), followed by a hybridization procedure with 200 nM of ssDNA–peptide conjugates solution in 1 M NaCl, Te1X at pH 7.2 and the hybridization process took place at 37 °C for 1 h. This was repeated for different concentrations of the ssDNA–pep381 so as to obtain the plots in Figure 7. Next, the sample was copiously rinsed with 1M NaCl, TE1X buffer (DNA-free buffer). This was to remove any un-bound molecules and other excess molecules that were not part of the hybridization. At the end of hybridization process before β2m binding assays, we performed AFM topographic imaging at low force (~0.2 nN) in contact mode and acquired AFM micrographs of all the nanografted nanoassemblages that had undergone hybridization. This imaging section allowed us to compare the AFM micrographs of ssDNA nanopatches to the same after hybridization with ssDNA–peptide conjugates and measure their respective relative heights.
The dsDNA–peptide nanoassemblages were incubated with the known concentration of β2m solution for a period of 1 h at 25 °C. […] Next, we measured the relative height of dsDNA–peptide assemblage after the binding assay using the section tool in Igor Pro 6.3A software. […]

Row | Molecule | kon ([1]; BIAcore 3000, HBS pH 7.4, 25 °C, association followed for 250 s, χ^2 = 4.5) [M⁻¹ s⁻¹] | koff ([1]; BIAcore 3000, HBS pH 7.4, 25 °C, dissociation followed for 300 s, χ^2 = 4.5) [s⁻¹] | SPR affinity, in words ([1]; SPR, 1:1 Langmuir) | recognition of respective binding sites on β2m, in words [2]
1 | C[C@@H]1NC(=O)[C@H]([C@@H](C)O)NC(=O)[C@H](CCC(=O)O)NC(=O)[C@H](Cc2ccccc2)NC(=O)[C@@H](N)CSSC[C@@H](C(=O)O)NC(=O)[C@H](Cc2c[nH]c3ccccc23)NC(=O)[C@H](CCC(=O)O)NC(=O)[C@H](CC(N)=O)NC(=O)[C@H](CCC(N)=O)NC(=O)[C@H](CCCNC(=N)N)NC(=O)[C@H](Cc2c[nH]c3ccccc23)NC1=O [pep331] (H-CFETAWRQNEWC-OH; disulfide 1-12) | 15 | 0.00449 | micromolar KD estimated values | –
2 | [CRRYSHQHYRHC] (disulfide) [pep381] | – | – | – | relatively high sensitivity
